Test results from patent publication US9771379B2, “N-(2-(2-amino-6-substituted-4,4a,5,6-tetrahydropyrano[3,4-d][1,3]OXAZIN-8a(8H)-yl)-thiazol-4-yl) amides” (Pfizer Inc., priority 2015, dated 2017).

How the values were obtained:
BACE1 enzyme = BACE1 enzyme (Homo sapiens (Human), UniProt P56817); experiment: BACE1 Cell-Free Assay; format: biochemical; details: for IC50: fluorescence polarization, synthetic APP substrate, pH 4.5; for biological activity: stated in words, used to assign absolute stereochemistry
Sequence of BACE1 enzyme (P56817 46-457): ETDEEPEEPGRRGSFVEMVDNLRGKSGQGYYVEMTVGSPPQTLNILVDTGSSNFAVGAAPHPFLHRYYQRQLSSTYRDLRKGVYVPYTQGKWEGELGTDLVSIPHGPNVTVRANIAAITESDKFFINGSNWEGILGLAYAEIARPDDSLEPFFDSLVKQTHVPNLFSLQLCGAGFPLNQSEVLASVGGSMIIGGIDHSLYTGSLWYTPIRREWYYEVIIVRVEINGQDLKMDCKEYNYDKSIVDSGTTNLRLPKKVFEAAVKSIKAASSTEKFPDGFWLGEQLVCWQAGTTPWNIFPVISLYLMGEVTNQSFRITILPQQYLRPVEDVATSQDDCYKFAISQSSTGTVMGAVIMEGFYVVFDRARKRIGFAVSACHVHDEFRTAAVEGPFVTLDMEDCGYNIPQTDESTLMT
Text: This assay measures the inhibition of the beta-secretase enzyme as it cleaves a non-native peptide.
A synthetic APP substrate that can be cleaved by beta-secretase having N-terminal biotin and made fluorescent by the covalent attachment of Oregon Green at the Cys residue is used to assay beta-secretase activity in the presence or absence of the inhibitory compounds. […] The BACE1 enzyme is affinity purified material from conditioned media of CHO-K1 cells that have been transfected with a soluble BACE construct (BACE1delta™96His). […] Plates are covered and incubated for 3 hours at 37° C. […] The activity of the beta-secretase enzyme is detected by changes in the fluorescence polarization that occur when the substrate is cleaved by the enzyme.

full length human BACE1 = full length human BACE1 (Homo sapiens (Human), UniProt P56817); experiment: BACE1 Scintillation Proximity Binding Assay (SPA); details: radioligand displacement, HEK cell membranes, pH 6.0
Sequence of full length human BACE1 (P56817 46-501): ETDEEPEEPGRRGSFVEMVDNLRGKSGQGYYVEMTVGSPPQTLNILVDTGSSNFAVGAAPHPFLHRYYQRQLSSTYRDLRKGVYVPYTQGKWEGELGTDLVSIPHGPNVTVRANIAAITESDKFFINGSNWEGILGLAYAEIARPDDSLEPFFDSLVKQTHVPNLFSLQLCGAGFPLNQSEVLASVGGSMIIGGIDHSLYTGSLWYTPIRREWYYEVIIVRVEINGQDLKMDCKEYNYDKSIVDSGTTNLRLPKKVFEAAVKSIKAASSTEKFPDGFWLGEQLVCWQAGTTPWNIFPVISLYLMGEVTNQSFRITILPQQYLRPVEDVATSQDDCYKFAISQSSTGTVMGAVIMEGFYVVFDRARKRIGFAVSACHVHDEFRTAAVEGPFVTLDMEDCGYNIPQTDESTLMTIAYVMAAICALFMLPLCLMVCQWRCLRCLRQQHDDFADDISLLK
Procedure: BACE1 Scintillation Proximity Binding Assay (SPA): The BACE1 binding assay measured beta-site amyloid precursor protein-cleaving enzyme (BACE) binding as a decrease in the counts of radioligand bound in a scintillation proximity assay (SPA). […] Full length human BACE1 over-expressed in HEK cells was prepared by Pfizer scientists. Frozen stock cell paste was reacted in 50 mM sodium acetate buffer (pH=6.0) containing 3H-(4aR,6R,8aS)-8a-(2,4-difluorophenyl)-6-(1-methyl-1H-pyrazol-4-yl)-4,4a,5,6,8,8a-hexahydropyrano[3,4-d][1,3]thiazin-2-amine ligand, SPA bead and 60 μM to 600 pM of test compound in an assay volume of 27 uL. The compound plate also contained positive (BACE inhibitor) and negative (DMSO) control wells. The binding was carried out at room temperature for 30 minutes and then the plates were read on a TriLux Microbeta reader to determine the number of counts bound. The raw data was converted to percent effect compared to positive and negative control wells and the compound concentrations and % effect values for tested compounds were plotted to determine the 50% effect (1050) with a four-parameter logistic dose response equation.

IC50 (BACE1 enzyme)	IC50 (full length human BACE1)	biological activity (BACE1 enzyme)	SMILES
6970 nM		inactive	NC1=N[C@]2(c3nc(NC(=O)c4ncc(OC(F)F)cc4Cl)cs3)CO[C@H](C(F)(F)F)C[C@@H]2CO1 [Example 13b, N-(2-((4aS,6S,8aS)-2-amino-6-(trifluoromethyl)-4,4a,5,6-tetrahydropyrano[3,4-d][1,3]oxazin-8a(8H)-yl)thiazol-4-yl)-3-chloro-5-(difluoromethoxy)picolinamide]
184 nM		active	NC1=N[C@@]2(c3nc(NC(=O)c4ncc(OC(F)F)cc4Cl)cs3)CO[C@@H](C(F)(F)F)C[C@H]2CO1 [Example 13a, N-(2-((4aR,6R,8aR)-2-amino-6-(trifluoromethyl)-4,4a,5,6-tetrahydropyrano[3,4-d][1,3]oxazin-8a(8H)-yl)thiazol-4-yl)-3-chloro-5-(difluoromethoxy)picolinamide]
155 nM			Cc1cc(OC(F)F)cnc1C(=O)Nc1csc([C@]23CO[C@@H](C(F)(F)F)C[C@H]2COC(N)=N3)n1 [Example 11a, N-(2-((4aR,6R,8aR)-2-amino-6-(trifluoromethyl)-4,4a,5,6-tetrahydropyrano[3,4-d][1,3]oxazin-8a(8H)-yl)thiazol-4-yl)-5-(difluoromethoxy)-3-methylpicolinamide]
15000 nM			NC1=N[C@]2(c3nc(NC(=O)c4ccc(OC(F)F)cn4)cs3)CO[C@H](C(F)(F)F)C[C@@H]2CO1 [Example 12b, N-(2-((4aS,6S,8aS)-2-amino-6-(trifluoromethyl)-4,4a,5,6-tetrahydropyrano[3,4-d][1,3]oxazin-8a(8H)-yl)thiazol-4-yl)-5-(difluoromethoxy)picolinamide]
371 nM			NC1=N[C@@]2(c3nc(NC(=O)c4ccc(OC(F)F)cn4)cs3)CO[C@@H](C(F)(F)F)C[C@H]2CO1 [Example 12a, N-(2-((4aR,6R,8aR)-2-amino-6-(trifluoromethyl)-4,4a,5,6-tetrahydropyrano[3,4-d][1,3]oxazin-8a(8H)-yl)thiazol-4-yl)-5-(difluoromethoxy)picolinamide]
10800 nM			Cc1cc(OC(F)F)cnc1C(=O)Nc1csc([C@@]23CO[C@H](C(F)(F)F)C[C@@H]2COC(N)=N3)n1 [Example 11b, N-(2-((4aS,6S,8aS)-2-amino-6-(trifluoromethyl)-4,4a,5,6-tetrahydropyrano[3,4-d][1,3]oxazin-8a(8H)-yl)thiazol-4-yl)-5-(difluoromethoxy)-3-methylpicolinamide]

Further lines, the compound ahead of its results:

SMILES	IC50 (BACE1 enzyme)	IC50 (full length human BACE1)	biological activity (BACE1 enzyme)
Cc1cc(C#N)cnc1C(=O)Nc1csc([C@]23COC4(CCC4)C[C@H]2COC(N)=N3)n1 [Example 19, N-(2-((4a′R,8a′R)-2′-amino-4a′,5′-dihydro-4′H-spiro [cyclobutane-1,6′-pyrano [3,4-d][1,3]oxazin]-8a′(8′H)-yl)thiazol-4-yl)-5-cyano-3-methylpicolinamide]	185 nM		
Cc1cc(C#N)cnc1C(=O)Nc1csc([C@]23CO[C@@H](C(F)(F)F)C[C@H]2COC(N)=N3)n1 [Example 21, N-{2-[(4aR,6R,8aR)-2-amino-6-(trifluoromethyl)-4,4a,5,6-tetrahydropyrano [3,4-d][1,3]oxazin-8a(8H)-yl]-1,3-thiazol-4-yl}-5-cyano-3-methylpyridine-2-carboxamide]		5 nM	
C[C@H]1C[C@H]2[C@@H](CF)OC(N)=N[C@@]2(c2nc(NC(=O)c3ccc(OC(F)F)cn3)cs2)CO1 [Example 6, N-(2-((4S,4aR,6S,8aR)-2-amino-4-(fluoromethyl)-6-methyl-4,4a,5,6-tetrahydropyrano[3,4-d][1,3]oxazin-8a(8H)-yl)thiazol-4-yl)-5-(difluoromethoxy)picolinamide]	270 nM		
C[C@H]1C[C@H]2COC(N)=N[C@@]2(c2nc(NC(=O)c3ccc(OC(F)F)cn3)cs2)CO1 [Example 1, N-(2-((4aR,6S,8aR)-2-amino-6-methyl-4,4a,5,6-tetrahydropyrano[3,4-d][1,3]oxazin-8a(8H)-yl)thiazol-4-yl)-5-(difluoromethoxy)picolinamide]	214 nM		
Cc1cc(OC(F)F)cnc1C(=O)Nc1csc([C@]23COC4(CCC4)C[C@H]2COC(N)=N3)n1 [Example 15, N-(2-((4a′R,8a′R)-2′-amino-4a′,5′-dihydro-4′H-spiro[cyclobutane-1,6′-pyrano[3,4-d][1,3]oxazin]-8a′(8′H)-yl)thiazol-4-yl)-5-(difluoromethoxy)-3-methyl picolinamide]	370 nM		
Cc1cc(OC(F)F)cnc1C(=O)Nc1csc([C@]23CO[C@@H](C)C[C@H]2CCOC(N)=N3)n1 [Example 5, N-(2-((5aR,7S,9aR)-2-amino-7-methyl-5,5a,6,7-tetrahydro-4H-pyrano[3,4-d][1,3]oxazepin-9a(9H)-yl)thiazol-4-yl)-5-(difluoromethoxy)-3-methylpicolinamide]	71 nM		
C[C@H]1C[C@H]2CCOC(N)=N[C@@]2(c2nc(NC(=O)c3ccc(OC(F)F)cn3)cs2)CO1 [Example 4, N-(2-((5aR,7S,9aR)-2-amino-7-methyl-5,5a,6,7-tetrahydro-4H-pyrano[3,4-d][1,3]oxazepin-9a(9H)-yl)thiazol-4-yl)-5-(difluoromethoxy)picolinamide]	146 nM		
NC1=N[C@@]2(c3nc(NC(=O)c4ccc(Cl)cn4)cs3)CO[C@@H](C(F)(F)F)C[C@H]2CO1 [Example 10a, N-(2-((4aR,6R,8aR)-2-amino-6-(trifluoromethyl)-4,4a,5,6-tetrahydropyrano[3,4-d][1,3]oxazin-8a(8H)-yl)thiazol-4-yl)-5-chloropicolinamide]	310 nM		active
C[C@H]1C[C@H]2[C@@H](C(F)(F)F)OC(N)=N[C@@]2(c2nc(NC(=O)c3ccc(OC(F)F)cn3)cs2)CO1 [Example 7, N-(2-((4S,4aR,6S,8aR)-2-amino-6-methyl-4-(trifluoromethyl)-4,4a,5,6-tetrahydropyrano[3,4-d][1,3]oxazin-8a(8H)-yl)thiazol-4-yl)-5-(difluoromethoxy)picolinamide]	112 nM		
NC1=N[C@@]2(c3nc(NC(=O)c4cnc(OC(F)F)cn4)cs3)COC3(CCC3)C[C@H]2CO1 [Example 17, N-(2-((4a′R,8a′R)-2′-amino-4a′,5′-dihydro-4′H-spiro [cyclobutane-1,6′-pyrano [3,4-d][1,3]oxazin]-8a′(8′H)-yl)thiazol-4-yl)-5-(difluoromethoxy)pyrazine-2-carboxamide]	2260 nM		
Cc1cc(OC(F)F)cnc1C(=O)Nc1csc([C@]23CO[C@@H](C)C[C@H]2COC(N)=N3)n1 [Example 3, N-(2-((4aR,6S,8aR)-2-amino-6-methyl-4,4a,5,6-tetrahydropyrano[3,4-d][1,3]oxazin-8a(8H)-yl)thiazol-4-yl)-5-(difluoromethoxy)-3-methylpicolinamide]	85 nM		
NC1=N[C@@]2(c3nc(NC(=O)c4ncc(OC(F)F)cc4Cl)cs3)COC3(CCC3)C[C@H]2CO1 [Example 18, N-(2-((4a′R,8a′R)-2′-amino-4a′,5′-dihydro-4′H-spiro [cyclobutane-1,6′-pyrano[3,4-d][1,3]oxazin]-8a′(8′H)-yl)thiazol-4-yl)-3-chloro-5-(difluoromethoxy) picolinamide]	561 nM		
CC1(C)C[C@H]2COC(N)=N[C@@]2(c2nc(NC(=O)c3ccc(OC(F)F)cn3)cs2)CO1 [Example 8, N-(2-((4aR,8aR)-2-Amino-6,6-dimethyl-4,4a,5,6-tetrahydropyrano[3,4-d][1,3]oxazin-8a(8H)-yl)thiazol-4-yl)-5-(difluoromethoxy)picolinamide]	610 nM		
C[C@H]1C[C@H]2COC(N)=N[C@@]2(c2nc(NC(=O)c3ncc(OC(F)F)cc3Cl)cs2)CO1 [Example 2, N-(2-((4aR,6S,8aR)-2-amino-6-methyl-4,4a,5,6-tetrahydropyrano[3,4-d][1,3]oxazin-8a(8H)-yl)thiazol-4-yl)-3-chloro-5-(difluoromethoxy)picolinamide]	123 nM		
NC1=N[C@]2(c3nc(NC(=O)c4ccc(Cl)cn4)cs3)CO[C@H](C(F)(F)F)C[C@@H]2CO1 [Example 10b, N-(2-((4aS,6S,8aS)-2-amino-6-(trifluoromethyl)-4,4a,5,6-tetrahydropyrano[3,4-d][1,3]oxazin-8a(8H)-yl)thiazol-4-yl)-5-chloropicolinamide]	16700 nM		inactive
Cc1cc(OC(F)F)cnc1C(=O)Nc1csc([C@]23COC(C)(C)C[C@H]2COC(N)=N3)n1 [Example 9, N-(2-((4aR,8aR)-2-amino-6,6-dimethyl-4,4a,5,6-tetrahydropyrano[3,4-d][1,3]oxazin-8a(8H)-yl)thiazol-4-yl)-5-(difluoromethoxy)-3-methylpicolinamide]	475 nM		
N#Cc1ccc(C(=O)Nc2csc([C@]34COC5(CCC5)C[C@H]3COC(N)=N4)n2)nc1 [Example 16, N-(2-((4a′R,8a′R)-2′-amino-4a′,5′-dihydro-4′H-spiro [cyclobutane-1,6′-pyrano [3,4-d][1,3]oxazin]-8a′(8′H)-yl)thiazol-4-yl)-5-cyano picolinamide]	395 nM		
